Reference: US20240173307A1, “MODULATORS OF THE INTEGRATED STRESS PATHWAY” (Calico Life Sciences LLC, priority 2017, published 2024)

system: HEK293T cells carrying the ATF4 luciferase reporter; test: ATF4-Luc assay (in vitro model of vanishing white matter disease); assay type: cell-based; conditions: Homo sapiens, HEK-293T, 1 μg/mL tunicamycin, 7 hours
Outline: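 Stable HEK293T line expressing firefly luciferase behind the human full-length ATF4 5′-UTR, grown in DMEM/10% FBS. Cells were co-treated with 1 μg/mL tunicamycin and 200 nM compound for 7 h. Luciferase luminescence was read as the output, and EC50 values were derived from it.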

| Structure (SMILES) | EC50 |
| --- | --- |
| COc1cnc(NC(=O)C23CC(NC(=O)COc4ccc(Cl)c(F)c4)(C2)C3)nc1 [Compound 302, 3-[2-(4-chloro-3-fluorophenoxy)acetamido]-N-(5-methoxypyrimidin-2-yl)bicyclo[1.1.1]pentane-1-carboxamide] | 250 to 500 nM |
| O=C(NC12CC(C(=O)Nc3ccc(OC(F)(F)F)cn3)(C1)C2)c1ccc(OC(F)(F)F)cn1 [Compound 315, 5-(trifluoromethoxy)-N-(3-{[5-(trifluoromethoxy)pyridin-2-yl]carbamoyl}bicyclo[1.1.1]pentan-1-yl)pyridine-2-carboxamide] | 500 to 1000 nM |
| NC(=O)c1ccc(CNC(=O)C23CC(NC(=O)COc4ccc(Cl)c(F)c4)(C2)C3)nc1 [Compound 339, 6-[({3-[2-(4-chloro-3-fluorophenoxy)acetamido]bicyclo[1.1.1]pentane-1-carbonyl}amino)methyl]pyridine-3-carboxamide] | > 2000 nM |
| O=C(COc1ccc(Cl)c(F)c1)NC12CCC(C(=O)N(CCO)Cc3ccc(Cl)c(F)c3)(CC1)CC2 [Compound 344, 4-[2-(4-chloro-3-fluorophenoxy)acetamido]-N-[(4-chloro-3-fluorophenyl)methyl]-N-(2-hydroxyethyl)bicyclo[2.2.2]octane-1-carboxamide] | 1000 to 2000 nM |
| O=C(COc1ccc(Cl)c(F)c1)NC12CC(C(=O)NCCc3c[nH]c4ccccc34)(C1)C2 [Compound 194, 3-[2-(4-chloro-3-fluorophenoxy)acetamido]-N-[2-(1H-indol-3-yl)ethyl]bicyclo[1.1.1]pentane-1-carboxamide] | < 250 nM |
| O=C(COc1ccc(Cl)c(F)c1)NC12CCC(C(=O)NCc3ccc(C(F)(F)F)cc3)(CC1)[C@H](O)C2 (single isomer, unassigned) [Compound 267] | < 250 nM |
